The values below come from patent US12643886B2 (Ontario Institute for Cancer Research (OICR), priority 2021, dated 2026).

Some results are limits rather than exact numbers.

The term IC50 denotes the point on the concentration scale where inhibition reaches its midpoint.

Holding throughout (format): biochemical
One assay addresses T1, NUAK2 (h) (Homo sapiens, UniProt Q9H093).
T1 construct: This assay was done radiometrically using full-length, recombinant enzyme; purchased Eurofins
T1 sequence (Q9H093 1-628): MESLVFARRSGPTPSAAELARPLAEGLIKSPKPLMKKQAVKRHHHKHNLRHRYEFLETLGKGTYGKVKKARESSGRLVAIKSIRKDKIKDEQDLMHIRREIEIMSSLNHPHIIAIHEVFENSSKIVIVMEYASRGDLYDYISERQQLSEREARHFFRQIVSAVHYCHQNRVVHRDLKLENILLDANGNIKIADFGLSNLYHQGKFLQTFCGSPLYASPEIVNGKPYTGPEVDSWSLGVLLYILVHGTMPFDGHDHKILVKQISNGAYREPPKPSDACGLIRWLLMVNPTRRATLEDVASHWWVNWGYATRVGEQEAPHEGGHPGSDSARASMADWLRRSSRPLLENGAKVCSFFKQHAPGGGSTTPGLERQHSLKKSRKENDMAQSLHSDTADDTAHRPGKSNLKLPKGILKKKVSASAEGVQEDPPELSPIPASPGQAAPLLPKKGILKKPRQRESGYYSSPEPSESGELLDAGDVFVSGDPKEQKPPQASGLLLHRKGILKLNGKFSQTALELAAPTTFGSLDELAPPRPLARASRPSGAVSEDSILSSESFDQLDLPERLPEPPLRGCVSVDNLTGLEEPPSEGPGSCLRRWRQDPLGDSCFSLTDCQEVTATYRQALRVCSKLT
The assay can be described thus: NUAK2 enzymatic assay (radiometric, Eurofins). The settings on record: full-length recombinant enzyme. The procedure:
(§1) To identify small molecule NUAK inhibitors, a biochemical NUAK2 enzymatic assay were outsourced to Eurofins. This assay was done radiometrically using full-length, recombinant enzyme. NUAK2 (h) was incubated with 8 mM MOPS pH 7.0, 0.2 mM EDTA, 300 μM […], 10 mM magnesium acetate and […] (specific activity and concentration as required). The reaction was initiated by the addition of the Mg/ATP mix. After incubation for 40 minutes at room temperature, the reaction was stopped by the addition of phosphoric acid to a concentration of 0.5%. 10 μL of the reaction was then spotted onto a P30 filtermat and washed four times for 4 minutes in 0.425% phosphoric acid and once in methanol prior to drying and scintillation counting. Compounds were routinely counter-screened against Aurora A and NUAK1. The results are shown in Table 1 where IC50's are reported in the following ranges: A: 0.1-10 nM; B: 11-100 nM; C: 101-1000 nM; D: >1000 nM for the compounds of Formula (I)

A further assay deals with T2, NUAK1 (Homo sapiens, UniProt O60285).
T2 sequence (O60285 1-661): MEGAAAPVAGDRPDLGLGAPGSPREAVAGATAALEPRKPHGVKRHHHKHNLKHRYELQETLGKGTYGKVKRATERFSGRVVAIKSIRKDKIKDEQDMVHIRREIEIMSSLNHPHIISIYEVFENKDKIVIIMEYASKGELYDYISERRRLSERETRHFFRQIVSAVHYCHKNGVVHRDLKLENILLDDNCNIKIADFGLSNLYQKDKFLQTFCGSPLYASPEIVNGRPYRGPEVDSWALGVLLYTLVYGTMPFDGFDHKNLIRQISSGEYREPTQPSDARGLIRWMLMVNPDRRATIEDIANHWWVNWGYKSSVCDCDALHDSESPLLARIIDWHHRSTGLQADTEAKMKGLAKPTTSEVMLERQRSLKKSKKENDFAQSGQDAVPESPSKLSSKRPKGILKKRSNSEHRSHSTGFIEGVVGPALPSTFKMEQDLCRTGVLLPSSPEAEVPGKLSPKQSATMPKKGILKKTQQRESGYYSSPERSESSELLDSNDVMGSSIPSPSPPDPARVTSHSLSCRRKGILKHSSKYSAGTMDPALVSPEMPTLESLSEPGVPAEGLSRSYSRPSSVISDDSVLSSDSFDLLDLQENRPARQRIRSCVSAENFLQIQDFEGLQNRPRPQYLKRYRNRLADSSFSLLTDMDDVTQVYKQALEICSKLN
The assay can be described thus: Counter-screen against NUAK1. The procedure:
as §1
For orientation: The purpose of a counterscreen is to sort out artefacts and off-target activity.

For a further assay, the target named is T3, Aurora A (Homo sapiens, UniProt O14965).
T3 sequence (O14965 1-403): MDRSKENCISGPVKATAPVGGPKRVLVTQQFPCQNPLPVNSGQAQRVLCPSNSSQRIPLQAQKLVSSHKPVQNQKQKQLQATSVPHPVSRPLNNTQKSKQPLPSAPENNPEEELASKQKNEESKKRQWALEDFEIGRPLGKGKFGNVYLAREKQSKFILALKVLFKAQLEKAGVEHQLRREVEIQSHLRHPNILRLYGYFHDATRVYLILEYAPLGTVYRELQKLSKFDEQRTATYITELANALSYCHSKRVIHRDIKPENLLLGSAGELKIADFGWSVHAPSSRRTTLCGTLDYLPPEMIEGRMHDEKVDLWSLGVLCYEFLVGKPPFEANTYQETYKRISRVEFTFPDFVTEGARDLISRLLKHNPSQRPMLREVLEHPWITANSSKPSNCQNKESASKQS
The assay can be described thus: Counter-screen against Aurora A. To be noted: read-out: AUR-A (IC50). The procedure:
as §1

With `COc1cc2c(cc1Nc1ncc(Cl)c(Nc3cccc4c3C(=O)NC4)n1)CN(C)CC2(C)C` [Compound I-16, 7-((5-chloro-2-((6-methoxy-2,4,4-trimethyl-1,2,3,4-tetrahydroisoquinolin-7-yl)amino)pyrimidin-4-yl)amino)isoindolin-1-one], the IC50 on NUAK2 (h) is 11 to 100 nM; on NUAK1 it was 11 to 100 nM; at Aurora A it was > 1000 nM.
`COc1cc2c(cc1Nc1ncc(Cl)c(Nc3cccc4c3C(=O)NC4)n1)CCNC2` [Compound I-17, 7-((5-chloro-2-((7-methoxy-1,2,3,4-tetrahydroisoquinolin-6-yl)amino)pyrimidin-4-yl)amino)isoindolin-1-one]: the IC50 at NUAK2 (h) was 11 to 100 nM; on NUAK1 it was 11 to 100 nM; at Aurora A, > 1000 nM.
Consider `COc1cc2c(cc1Nc1ncc(Cl)c(Nc3cccc4c3C(=O)NC4)n1)CCN(C(C)C)C2` [Compound I-18, 7-((5-chloro-2-((2-isopropyl-7-methoxy-1,2,3,4-tetrahydroisoquinolin-6-yl)amino)pyrimidin-4-yl)amino)isoindolin-1-one], for which the half-maximal inhibitory concentration (IC50) on NUAK2 (h) was 0.1 to 10 nM; at NUAK1 it was 11 to 100 nM; on Aurora A, > 1000 nM.
As to `COc1cc2c(cc1Nc1ncc(Cl)c(Nc3cccc4c3C(=O)NC4)n1)CCN(CCC(F)(F)F)C2` [Compound I-19, 7-((5-chloro-2-((7-methoxy-2-(3,3,3-trifluoropropyl)-1,2,3,4-tetrahydroisoquinolin-6-yl)amino)pyrimidin-4-yl)amino)isoindolin-1-one], the IC50 at NUAK2 (h) was 11 to 100 nM; at NUAK1, 101 to 1000 nM; on Aurora A, > 1000 nM.
In the same order, the values of `CN1CCN(C2CCN(c3ccc(Nc4ncc(C(F)(F)F)c(Nc5cccc6c5C(=O)NC6)n4)c(OC(F)F)c3)CC2)CC1` [Compound I-20, 7-((2-((2-(difluoromethoxy)-4-(4-(4-methylpiperazin-1-yl)piperidin-1-yl)phenyl)amino)-5-(trifluoromethyl)pyrimidin-4-yl)amino)isoindolin-1-one] are 0.1 to 10 nM, 11 to 100 nM and 101 to 1000 nM.
In the case of `COc1cc2c(cc1Nc1ncc(C(F)(F)F)c(Nc3cccc4c3C(=O)NC4)n1)CN(C)CC2` [Compound I-21, 7-((2-((6-methoxy-2-methyl-1,2,3,4-tetrahydroisoquinolin-7-yl)amino)-5-(trifluoromethyl)pyrimidin-4-yl)amino)isoindolin-1-one], the results for the IC50 on NUAK2 (h), at NUAK1 and on Aurora A were 11 to 100 nM, 11 to 100 nM and 101 to 1000 nM, respectively.
As to `COc1cc2c(cc1Nc1ncc(C(F)(F)F)c(Nc3cccc4c3C(=O)NC4)n1)CCN(C)C2` [Compound I-22, 7-((2-((7-methoxy-2-methyl-1,2,3,4-tetrahydroisoquinolin-6-yl)amino)-5-(trifluoromethyl)pyrimidin-4-yl)amino)isoindolin-1-one], the IC50 was in the range of 0.1 to 10 nM on NUAK2 (h), 11 to 100 nM at NUAK1 and 101 to 1000 nM at Aurora A.
In the same order, the values of `COc1cc2c(cc1Nc1ncc(Cl)c(Nc3cccc4c3C(=O)NC4)n1)CNCC2` [Compound I-23, 7-((5-chloro-2-((6-methoxy-1,2,3,4-tetrahydroisoquinolin-7-yl)amino)pyrimidin-4-yl)amino)isoindolin-1-one] are 11 to 100 nM, 11 to 100 nM and 101 to 1000 nM.
With `O=C1NCc2cccc(Nc3nc(Nc4ccc(N5CCNCC5)cc4OC(F)F)ncc3Cl)c21` [Compound I-24, 7-((5-chloro-2-((2-(difluoromethoxy)-4-(piperazin-1-yl)phenyl)amino)pyrimidin-4-yl)amino)isoindolin-1-one], the IC50 was 0.1 to 10 nM on NUAK2 (h), 11 to 100 nM at NUAK1 and > 1000 nM at Aurora A.
For the compound `COc1cc2c(cc1Nc1ncc(Cl)c(Nc3cccc4c3C(=O)NC4)n1)CNCC21CC1` [Compound I-25, 7-((5-chloro-2-((6′-methoxy-2′,3′-dihydro-1′H-spiro[cyclopropane-1,4′-isoquinolin]-7′-yl)amino)pyrimidin-4-yl)amino)isoindolin-1-one], the IC50 at NUAK2 (h) is 11 to 100 nM; against NUAK1, 11 to 100 nM; at Aurora A it was > 1000 nM.
